Results from ChEMBL document CHEMBL3526157, “Unique metabolic pathway of [(14)C]lenvatinib after oral administration to male cynomolgus monkey” (Drug Metab Dispos, 2012).
Values belong to the molecule of their own block, whether it stands above or below them.

Experiments:
[1] = Drug metabolism in cynomolgus monkey assessed as 2-(6-carbamoyl-7-methoxyquinolin-4-ylamino)-3-((2-(6-carbamoyl-7-methoxyquinolin-4-ylamino)-3-(carboxymethylamino)-3-oxopropyl)disulfanyl)propanoic acid metabolite level in urine at 30 mg/kg, po administered on day 1, 2 and 4 by radio-LC/MS analysis; assay type: ADME, organism-based, Macaca fascicularis; parameters: dose 30 mg/kg, route oral; conditions: in vivo
[2] = Drug metabolism in cynomolgus monkey assessed as parent compound level in liver at 30 mg/kg, po administered on day 1, 2 and 4 by radio-LC/MS analysis; assay type: ADME, organism-based, Macaca fascicularis; parameters: dose 30 mg/kg, route oral; conditions: in vivo
Plasma = assay: Drug metabolism in cynomolgus monkey assessed as parent compound level in plasma at 30 mg/kg, po administered on day 1, 2 and 4 by radio-LC/MS analysis; assay type: ADME, organism-based, Macaca fascicularis; parameters: dose 30 mg/kg, route oral; conditions: in vivo
[3] = Drug metabolism in cynomolgus monkey assessed as 3,3'-disulfanediylbis(2-(6-carbamoyl-7-methoxyquinolin-4-ylamino)propanoic acid) metabolite level in urine at 30 mg/kg, po administered on day 1, 2 and 4 by radio-LC/MS analysis; assay type: ADME, organism-based, Macaca fascicularis; parameters: dose 30 mg/kg, route oral; conditions: in vivo
[4] = Drug metabolism in cynomolgus monkey assessed as 2-(6-carbamoyl-7-methoxyquinolin-4-ylthio)acetic acid metabolite level in urine at 30 mg/kg, po administered on day 1, 2 and 4 by radio-LC/MS analysis; assay type: ADME, organism-based, Macaca fascicularis; parameters: dose 30 mg/kg, route oral; conditions: in vivo
[5] = Drug metabolism in cynomolgus monkey assessed as 2-(6-carbamoyl-7-methoxyquinolin-4-ylamino)-3-(6-carbamoyl-7-methoxyquinolin-4-ylthio)propanoic acid metabolite level in bile at 30 mg/kg, po administered on day 1, 2 and 4 by radio-LC/MS analysis; assay type: ADME, organism-based, Macaca fascicularis; parameters: dose 30 mg/kg, route oral; conditions: in vivo
[6] = Drug metabolism in cynomolgus monkey assessed as 2-(6-carbamoyl-7-methoxyquinolin-4-ylamino)-3-mercaptopropanoic acid metabolite level in bile at 30 mg/kg, po administered on day 1, 2 and 4 by radio-LC/MS analysis; assay type: ADME, organism-based, Macaca fascicularis; parameters: dose 30 mg/kg, route oral; conditions: in vivo
Cynomolgus monkey [7] = assay: Drug metabolism in cynomolgus monkey assessed as 2-(6-carbamoyl-7-methoxyquinolin-4-ylamino)-3-mercaptopropanoic acid formation at 30 mg/kg, po administered on day 1, 2 and 4 by radio-LC/MS analysis; assay type: ADME, organism-based, Macaca fascicularis; parameters: dose 30 mg/kg, route oral; conditions: in vivo
Cynomolgus monkey [8] = assay: Drug metabolism in cynomolgus monkey assessed as 2-(6-carbamoyl-7-methoxyquinolin-4-ylamino)-3-(6-carbamoyl-7-methoxyquinolin-4-ylthio)propanoic acid formation at 30 mg/kg, po administered on day 1, 2 and 4 by radio-LC/MS analysis; assay type: ADME, organism-based, Macaca fascicularis; parameters: dose 30 mg/kg, route oral; conditions: in vivo
[9] = Drug metabolism in cynomolgus monkey assessed as 3,3'-disulfanediylbis(2-(6-carbamoyl-7-methoxyquinolin-4-ylamino)propanoic acid) metabolite level in bile at 30 mg/kg, po administered on day 1, 2 and 4 by radio-LC/MS analysis; assay type: ADME, organism-based, Macaca fascicularis; parameters: dose 30 mg/kg, route oral; conditions: in vivo
[10] = Drug metabolism in cynomolgus monkey assessed as 2-(6-carbamoyl-7-methoxyquinolin-4-ylamino)-3-mercaptopropanoic acid metabolite level in liver at 30 mg/kg, po administered on day 1, 2 and 4 by radio-LC/MS analysis; assay type: ADME, organism-based, Macaca fascicularis; parameters: dose 30 mg/kg, route oral; conditions: in vivo
[11] = Drug metabolism in cynomolgus monkey assessed as 2-(6-carbamoyl-7-methoxyquinolin-4-ylamino)-3-(6-carbamoyl-7-methoxyquinolin-4-ylthio)propanoic acid metabolite level in liver at 30 mg/kg, po administered on day 1, 2 and 4 by radio-LC/MS analysis; assay type: ADME, organism-based, Macaca fascicularis; parameters: dose 30 mg/kg, route oral; conditions: in vivo
Cynomolgus monkey [12] = assay: Drug metabolism in cynomolgus monkey assessed as parent compound formation at 30 mg/kg, po administered on day 1, 2 and 4 by radio-LC/MS analysis; assay type: ADME, organism-based, Macaca fascicularis; parameters: dose 30 mg/kg, route oral; conditions: in vivo
[13] = Drug excretion in cynomolgus monkey feces assessed as unchanged level of drug at 30 mg/kg, po administered on day 1, 2 and 4 by radio-LC/MS analysis; assay type: ADME, organism-based, Macaca fascicularis; parameters: dose 30 mg/kg, route oral; conditions: read-out: Drug excretion
[14] = Drug metabolism in cynomolgus monkey assessed as 5-(3-(6-carbamoyl-7-methoxyquinolin-4-ylthio)-1-(carboxymethylamino)-1-oxopropan-2-ylamino)-[…]-5-oxopentanoic acid metabolite level in liver at 30 mg/kg, po administered on day 1, 2 and 4 by radio-LC/MS analysis; assay type: ADME, organism-based, Macaca fascicularis; parameters: dose 30 mg/kg, route oral; conditions: in vivo
[15] = Drug metabolism in cynomolgus monkey assessed as parent compound level in bile at 30 mg/kg, po administered on day 1, 2 and 4 by radio-LC/MS analysis; assay type: ADME, organism-based, Macaca fascicularis; parameters: dose 30 mg/kg, route oral; conditions: in vivo
Cynomolgus monkey [16] = assay: Drug metabolism in cynomolgus monkey assessed as 5-(3-(6-carbamoyl-7-methoxyquinolin-4-ylthio)-1-(carboxymethylamino)-1-oxopropan-2-ylamino)-[…]-5-oxopentanoic acid formation at 30 mg/kg, po administered on day 1, 2 and 4 by radio-LC/MS analysis; assay type: ADME, organism-based, Macaca fascicularis; parameters: dose 30 mg/kg, route oral; conditions: in vivo
Cynomolgus monkey [17] = assay: Drug metabolism in cynomolgus monkey assessed as 2-(6-carbamoyl-7-methoxyquinolin-4-ylthio)acetic acid formation at 30 mg/kg, po administered on day 1, 2 and 4 by radio-LC/MS analysis; assay type: ADME, organism-based, Macaca fascicularis; parameters: dose 30 mg/kg, route oral; conditions: in vivo
Cynomolgus monkey [18] = assay: Drug metabolism in cynomolgus monkey assessed as 2-(6-carbamoyl-7-methoxyquinolin-4-ylamino)-3-((2-(6-carbamoyl-7-methoxyquinolin-4-ylamino)-3-(carboxymethylamino)-3-oxopropyl)disulfanyl)propanoic acid formation at 30 mg/kg, po administered on day 1, 2 and 4 by radio-LC/MS analysis; assay type: ADME, organism-based, Macaca fascicularis; parameters: dose 30 mg/kg, route oral; conditions: in vivo
Cynomolgus monkey [19] = assay: Drug metabolism in cynomolgus monkey assessed as 3,3'-disulfanediylbis(2-(6-carbamoyl-7-methoxyquinolin-4-ylamino)propanoic acid) formation at 30 mg/kg, po administered on day 1, 2 and 4 by radio-LC/MS analysis; assay type: ADME, organism-based, Macaca fascicularis; parameters: dose 30 mg/kg, route oral; conditions: in vivo
[20] = Drug metabolism in cynomolgus monkey assessed as 2-(6-carbamoyl-7-methoxyquinolin-4-ylamino)-3-(6-carbamoyl-7-methoxyquinolin-4-ylthio)propanoic acid metabolite level in urine at 30 mg/kg, po administered on day 1, 2 and 4 by radio-LC/MS analysis; assay type: ADME, organism-based, Macaca fascicularis; parameters: dose 30 mg/kg, route oral; conditions: in vivo
Cynomolgus monkey [21] = assay: Drug retention time in cynomolgus monkey treated with 30 mg/kg, po of [14C]lenvatinib administered on day 1, 2 and 4 by radio-LC/MS analysis; assay type: ADME, organism-based, Macaca fascicularis; parameters: dose 30 mg/kg, route oral; conditions: in vivo
Cynomolgus monkey [22] = assay: Drug metabolism in cynomolgus monkey treated with 30 mg/kg, po of [14C]lenvatinib administered on day 1, 2 and 4 by radio-LC/MS analysis; assay type: ADME, organism-based, Macaca fascicularis; parameters: dose 30 mg/kg, route oral; conditions: in vivo
[23] = Drug metabolism in human liver S9 fraction treated with 50 uM of lenvatinib up to 120 mins by HPLC analysis in presence of GSH and NADPH; assay type: ADME, subcellular; conditions: s9, 2 h
[24] = Drug metabolism in Sprague-Dawley rat liver S9 fraction treated with 50 uM of lenvatinib up to 60 mins by HPLC analysis in presence of GSH and absence of NADPH; conditions: s9, 1 h
[25] = Drug metabolism in Sprague-Dawley rat liver S9 fraction treated with 50 uM of lenvatinib up to 60 mins by HPLC analysis in presence of GSH and NADPH; conditions: s9, 1 h
[26] = Drug metabolism in human liver S9 fraction treated with 50 uM of lenvatinib up to 120 mins by HPLC analysis in presence of GSH and absence of NADPH; assay type: ADME; conditions: s9, 2 h
[27] = Drug metabolism in cynomolgus monkey liver S9 fraction treated with 50 uM of lenvatinib up to 120 mins by HPLC analysis in presence of GSH and absence of NADPH; assay type: ADME, Macaca fascicularis; conditions: s9, 2 h
[28] = Drug metabolism in cynomolgus monkey liver S9 fraction treated with 50 uM of lenvatinib up to 120 mins by HPLC analysis in presence of GSH and NADPH; assay type: ADME, subcellular, Macaca fascicularis; conditions: s9, 2 h

- Drug metabolism [1]: metabolite_detected
- Drug metabolism [2]: metabolite_detected
- Drug metabolism (Plasma): metabolite_detected
- Drug metabolism [3]: metabolite_detected
- Drug metabolism [4]: metabolite_detected
- Drug metabolism [5]: metabolite_detected
- Drug metabolism [6]: metabolite_detected
- Drug metabolism (Cynomolgus monkey [7]): metabolite_detected
- Drug metabolism (Cynomolgus monkey [8]): metabolite_detected
- Drug metabolism [9]: metabolite_detected
- Drug metabolism [10]: metabolite_detected
- Drug metabolism [11]: metabolite_detected
- Drug metabolism (Cynomolgus monkey [12]): metabolite_detected
- dose excreted [13]: 51%
- Drug metabolism [14]: metabolite_detected
- Drug metabolism [15]: metabolite_detected
- Drug metabolism (Cynomolgus monkey [16]): metabolite_detected
- Drug metabolism (Cynomolgus monkey [17]): metabolite_detected
- Drug metabolism (Cynomolgus monkey [18]): metabolite_detected
- Drug metabolism (Cynomolgus monkey [19]): metabolite_detected
- Drug metabolism [20]: metabolite_detected
SMILES: COc1cc2n[14cH]cc(Oc3ccc(NC(=O)NC4CC4)c(Cl)c3)c2cc1C(N)=O.CS(=O)(=O)O

- Retention_time (Cynomolgus monkey [21]): 14.1 min
- Drug metabolism (Cynomolgus monkey [22]): metabolite_detected
SMILES: COc1cc2nccc(N[C@@H](CSSC[C@H](Nc3ccnc4cc(OC)c(C(N)=O)cc34)C(=O)NCC(=O)O)C(=O)O)c2cc1C(N)=O

- Retention_time (Cynomolgus monkey [21]): 12.2 min
- Drug metabolism (Cynomolgus monkey [22]): metabolite_detected
SMILES: COc1cc2nccc(SCC(=O)O)c2cc1C(N)=O

- Drug metabolism [23]: metabolite_detected
- Drug metabolism [24]: metabolite_detected
- Retention_time (Cynomolgus monkey [21]): 13.1 min
- Drug metabolism [25]: metabolite_detected
- Drug metabolism [26]: metabolite_detected
- Drug metabolism [27]: metabolite_detected
- Drug metabolism [28]: metabolite_detected
- Drug metabolism (Cynomolgus monkey [22]): metabolite_detected
SMILES: COc1cc2nccc(SC[C@H](NC(=O)CC[C@H](N)C(=O)O)C(=O)NCC(=O)O)c2cc1C(N)=O
